Experimental data as given in the NIST ThermoML archive (doi:10.1016/j.jct.2005.02.004).

Conditions: Liquid, Vibrating tube method

CO [methanol]
Conditions	mass density [kg/m3]
298.26 K, 235 kPa	785.98
298.26 K, 5000 kPa	790.69
298.26 K, 9999 kPa	795.4
298.26 K, 15013 kPa	799.88
298.26 K, 19987 kPa	804.1
298.26 K, 25008 kPa	808.17
298.26 K, 29997 kPa	812.04
298.26 K, 34991 kPa	815.76
298.26 K, 39981 kPa	819.34
323.22 K, 270 kPa	762.14
323.22 K, 4990 kPa	767.53
323.22 K, 9984 kPa	772.87
323.22 K, 14982 kPa	777.91
323.22 K, 19989 kPa	782.69
323.22 K, 24986 kPa	787.21
323.22 K, 29995 kPa	791.53
323.22 K, 34987 kPa	795.64
323.22 K, 39993 kPa	799.6
348.25 K, 366 kPa	737.29
348.25 K, 4987 kPa	743.46
348.25 K, 9986 kPa	749.65
348.25 K, 14991 kPa	755.42
348.25 K, 20004 kPa	760.84
348.25 K, 25020 kPa	765.94
348.25 K, 30013 kPa	770.76
348.25 K, 34989 kPa	775.32
348.25 K, 40000 kPa	779.7
373.26 K, 534 kPa	710.55
373.26 K, 4983 kPa	717.67
373.26 K, 9990 kPa	724.99
373.26 K, 14998 kPa	731.69
373.26 K, 19985 kPa	737.88
373.26 K, 24994 kPa	743.68
373.26 K, 29997 kPa	749.13
373.26 K, 35001 kPa	754.27
373.26 K, 39996 kPa	759.14
398.28 K, 934 kPa	680.93
398.28 K, 4984 kPa	689
398.28 K, 9998 kPa	697.91
398.28 K, 14986 kPa	705.88
398.28 K, 19987 kPa	713.16
398.28 K, 24992 kPa	719.87
398.28 K, 29991 kPa	726.11
398.28 K, 35005 kPa	731.99
398.28 K, 40004 kPa	737.47
